Earlier results, collected in patent US9089619B2, “Hybrid nanocrystals for treatment and bioimaging of disease” (University of Kentucky, priority 2005, dated 2015).

Conditions: water at 25° C.

In the case of `Nc1nc2ncc(CNc3ccc(C(=O)N[C@@H](CCC(=O)O)C(=O)O)cc3)nc2c(=O)[nH]1` [Folic acid], the solubility in water is given as “about 1.6 μg/ml”.
